Data: article PMC8116058, “De novo macrocyclic peptides dissect energy coupling of a heterodimeric ABC transporter by multimode allosteric inhibition” (eLife, 2021)
Positions of bridges follow the written chain, without caps; N, C: chain ends. Non-standard residues stand in square brackets, D forms with d. Residues, ends and D or L forms follow the SMILES beside them. *: point of attachment. 5FAM = O=C1OC2(c3ccc(O)cc3Oc3cc(O)ccc32)c2ccc(C(=O)*)cc21; βAla = NCCC(=O)O

Tests used:
TmrAB = assay: ATP binding by scintillation proximity assay (SPA); design: species or system Thermus thermophilus; settings: CP^B 1 µM; for Effect on ATP binding to TmrAB: SPA; for Signal, ATP binding: TmrAB 0.2 µM on SPA beads, ATP 3 µM traced with 3H-ATP, 30 min on ice, without CP 5.06; for Signal, Background: after release of TmrAB from beads with imidazole 200 mM
From the text: To elucidate the mechanistic basis for the inhibition of ATP hydrolysis and substrate transport, we investigated the effects of CPs on substrate binding. In the first approach, fluorescent CP^Fs were used as reporters in fluorescence polarization. […] In addition, we examined the impact of CP^Bs on ATP binding to TmrAB by scintillation proximity assays (SPA) (Figure 4C). […] Taken together, CPs are high-affinity allosteric inhibitors of TmrAB that leave ATP binding and substrate interaction largely unaffected, while impairing ATP hydrolysis and substrate translocation across the membrane.
Figure 4. […] (A) CP^Fs binding TmrAB is not affected by substrate peptide binding. […] For competition, C4^ATTO655 peptide (2 µM) or R9LQK peptide (200 µM) were added. (B) Binding of C4F peptide is not affected by CP^Bs. C4F peptides (50 nM) were mixed with TmrAB (4 µM), and fluorescence anisotropy was monitored as described in (A). For competition, C4^ATTO655 (10 µM) or CP^Bs (6 µM) were added. […] TmrAB (0.2 µM) were immobilized on SPA beads and incubated with ATP (3 μM, traced with ^3H-ATP) in the presence and absence of CP^Bs (1 µM each) for 30 min on ice. ATP binding was monitored by SPA. Background values were determined after releasing TmrAB complexes from the beads by adding imidazole (200 mM). The background signal in the absence of CP^Bs was set to 0 cpm. […] As this is an equilibrium experiment, this can be rationalized by the fact that CP13 stabilizes the ATP-bound OF conformer. Figure 4—source data 1. Source data for Figure 4.
DDM-solubilized TmrAB (0.2 µM) was incubated with ATP (2.8 μM), [2,5’,8-^3H(N)]-ATP (0.2 µM, ^3H-ATP, PerkinElmer), MgCl2 (3 mM), and CP^Bs (1 µM) for 30 min on ice. Copper-chelated SPA beads (PerkinElmer) were added to a final concentration of 5 mg/ml. Total binding was determined at 20°C in cpm mode (Wallac MicroBeta). Bound TmrAB complexes were eluted by adding 200 mM of imidazole, and background binding was determined. Data represent mean ± SD from three experiments.

TmrA^EQB = assay: Nucleotide occlusion, catalytically reduced variant; assay type: biochemical, Thermus thermophilus; settings: CP^F 4 µM; 5 min 45°C
Description: Figure 5. […] (A, B) CP6^F (A) or CP13^F (B, 50 nM each) were incubated with increasing concentrations of detergent-solubilized inward-facing TmrAB (in the absence of Mg-ATP) or outward-facing TmrA^EQB, which was trapped with Mg-ATP (1 mM) for 5 min at 45°C as described ([Hofmann et al., 2019]; [Stefan et al., 2020]). Immediately after, the fluorescence anisotropy was assayed at λex/em = 485/520 nm. The difference in fluorescence polarization was normalized to free and fully bound CP^F. Data were fitted by a one-site binding model. […] TmrAB (2 µM each) were mixed with CP^Fs (4 µM), ATP (1 mM, traced with [α^32P]-ATP), and MgCl2 (5 mM) for 5 min at 4°C or 45°C. Cold ATP (10 mM) was added, and freely exchangeable nucleotides were removed by rapid gel filtration. Occluded nucleotides were analyzed by thin layer chromatography and autoradiography. Representative radiograms for independent triplicates are shown. (D) Stably occluded nucleotides, [α^32P]-ATP and [α^32P]-ADP, were quantified by autoradiography. Data were normalized to the vanadate-trapped state. In (A, B, D), mean values ± SD (n = 3) are shown. Figure 5—source data 1. Source Data for Figure 5. Figure 5—figure supplement 1. […] (A) CP^Fs (50 nM each) were incubated with increasing concentrations of detergent-solubilized IF TmrAB in the inward-facing (IF) conformation (absence of Mg-ATP) or TmrA^EQB populated in the outward-facing (OF) conformation, which was trapped in the OF conformation by Mg-ATP (1 mM) after 5 min incubation at 45°C. The difference in fluorescence polarization was normalized to unbound (0%) and 100% bound CP^F. Data were fitted by a one-site binding model. Fluorescence anisotropy was recorded at λex/em = 485/520 nm. […] TmrA^EQB (2 µM) were incubated in the absence and presence of CP^Fs (4 µM each), ATP (1 mM, traced with [α^32P]-ATP), and MgCl2 (5 mM) for 5 min at 4°C or 45°C. Cold ATP (10 mM) was added, and free nucleotides were removed by rapid gel filtration. Occluded nucleotides were analyzed by thin layer chromatography and autoradiography. Representative radiograms for independent triplicates are shown. […] Figure 5—figure supplement 1—source data 1.
We also examined the impact of CP^Fs on the IF-to-OF transition of wild-type TmrAB induced by ATP binding through nucleotide occlusion (stable trapping) as the readout. We induced the IF-to-OF switch with radiotraced [α^32P]-ATP for 5 min at 45°C in the presence and absence of CPs and removed unbound nucleotides by rapid gel filtration. Subsequently, the occluded nucleotides were identified and quantified by thin layer chromatography and autoradiography (Figure 5C, D).
Detergent-solubilized TmrAB (2 µM) were incubated with ATP (1 mM) traced with [α^32P]-ATP (Hartmann Analytic), MgCl2 (5 mM), CP^Fs (4 µM), or orthovanadate (1 mM) for 5 min at 45°C. […]

SMILES | Effect on ATP binding to TmrAB (TmrAB) | Signal, ATP binding (TmrAB) [cpm*10^3] | Signal, Background (TmrAB) [cpm*10^3] | Effect on ATP occlusion, TmrA^EQB (TmrA^EQB) | Effect on ATP binding to TmrAB (TmrAB; listed as CP13^B)
CC(C)C[C@@H]1NC(=O)[C@H](Cc2ccccc2)NC(=O)CNC(=O)[C@H](CO)NC(=O)[C@H](Cc2ccccc2)NC(=O)[C@H](CC(=O)O)NC(=O)[C@@H]2CCCN2C(=O)[C@H]([C@@H](C)O)NC(=O)[C@@H](Cc2ccc(O)cc2)NC(=O)CSC[C@@H](C(=O)NCC(=O)N[C@@H](CO)C(=O)NCCC(=O)NCCC(=O)N[C@@H](CCCNC(=N)N)C(=O)N[C@@H](CCCCNC(=O)c2ccc3c(c2)C(=O)OC32c3ccc(O)cc3Oc3cc(O)ccc32)C(N)=O)NC(=O)[C@H](C)NC(=O)[C@H](CC(N)=O)NC(=O)[C@H](CCCNC(=N)N)NC(=O)[C@H](CC(C)C)NC(=O)[C@H](Cc2ccccc2)NC(=O)[C@H](C)NC1=O [CP12] ({CH2CO}-[dY]TPDFSGFLAFLRNACGS[βAla][βAla]RK(5FAM)-NH2; thioether N-16) | no effect on ATP binding | 5.02 | 0.08 | inhibited ATP occlusion | –
CC(C)[C@@H]1NC(=O)[C@H](Cc2ccccc2)NC(=O)[C@@H]2CCCN2C(=O)[C@H](CC(N)=O)NC(=O)[C@H](Cc2c[nH]c3ccccc23)NC(=O)[C@H](C(C)C)NC(=O)[C@H](Cc2ccc(O)cc2)NC(=O)[C@H](Cc2ccccc2)NC(=O)[C@@H](Cc2ccc(O)cc2)NC(=O)CSC[C@@H](C(=O)NCC(=O)N[C@@H](CO)C(=O)NCCC(=O)NCCC(=O)N[C@@H](CCCNC(=N)N)C(=O)N[C@@H](CCCCNC(=O)c2ccc3c(c2)C(=O)OC32c3ccc(O)cc3Oc3cc(O)ccc32)C(N)=O)NC(=O)[C@H](CCCCN)NC(=O)[C@H](Cc2ccccc2)NC1=O [CP14] ({CH2CO}-[dY]FYVWNPFVFKCGS[βAla][βAla]RK(5FAM)-NH2; thioether N-12; C-terminus assumed) | no effect on ATP binding | 5.10 | 0.08 | ATP is occluded in the presence or absence | –
CC[C@H](C)[C@@H]1NC(=O)[C@H](Cc2c[nH]c3ccccc23)NC(=O)[C@H](CC(N)=O)NC(=O)[C@H](C)NC(=O)[C@H](CO)NC(=O)[C@@H]2CCCN2C(=O)[C@H](CC(=O)O)NC(=O)[C@@H](Cc2ccc(O)cc2)NC(=O)CSC[C@@H](C(=O)NCC(=O)N[C@@H](CO)C(=O)NCCC(=O)NCCC(=O)N[C@@H](CCCNC(=N)N)C(=O)N[C@@H](CCCCNC(=O)c2ccc3c(c2)C(=O)OC32c3ccc(O)cc3Oc3cc(O)ccc32)C(N)=O)NC(=O)[C@H]([C@@H](C)O)NC(=O)[C@H](CC(C)C)NC(=O)[C@H](CC(C)C)NC(=O)[C@H](C(C)C)NC(=O)[C@H](CC(C)C)NC1=O [CP13] ({CH2CO}-[dY]DPSANWILVLLTCGS[βAla][βAla]RK(5FAM)-NH2; thioether N-14; C-terminus assumed) | value of bound ATP exceeds the control without CPs | 6.33 | 0.19 | ATP is occluded in the presence or absence | only minor effects on ATP binding
CC[C@H](C)[C@@H]1NC(=O)[C@H]([C@@H](C)O)NC(=O)[C@H](CC(C)C)NC(=O)[C@H](Cc2c[nH]c3ccccc23)NC(=O)[C@H](Cc2ccccc2)NC(=O)[C@H](CC(N)=O)NC(=O)[C@H](CCC(=O)O)NC(=O)[C@H](CC(C)C)NC(=O)[C@H](CS)NC(=O)[C@H](Cc2c[nH]cn2)NC(=O)[C@H](CO)NC(=O)[C@@H](Cc2ccc(O)cc2)NC(=O)CSC[C@@H](C(=O)NCC(=O)N[C@@H](CO)C(=O)NCCC(=O)NCCC(=O)N[C@@H](CCCNC(=N)N)C(=O)N[C@@H](CCCCNC(=O)c2ccc3c(c2)C(=O)OC32c3ccc(O)cc3Oc3cc(O)ccc32)C(N)=O)NC(=O)[C@H](CC(C)C)NC1=O [CP6] ({CH2CO}-[dY]SHCLENFWLTILCGS[βAla][βAla]RK(5FAM)-NH2; thioether N-14) | only minor effects on ATP binding | 4.22 | -0.04 | inhibited ATP occlusion | –
